In EPA's ToxRefDB 2:

Experiments:
rat [1] = details: Combined chronic toxicity/carcinogenicity; fischer; Oral; Feed; dose end: 104 week; group: systemic; systemic / pathology microscopic / stomach / adenocarcinoma + systemic / pathology microscopic / stomach / adenoma + systemic / in life …
mouse [2] = details: Carcinogenicity; b6c3f1; Oral; Feed; dose end: 96 week; group: systemic; systemic / pathology microscopic / stomach / adenoma + systemic / in life observation / body weight / body weight + systemic / in life …
rabbit [3] = details: Prenatal developmental toxicity study, new zealand white, Oral, Gavage/Intubation, dose end: 19 GD
rat [4] = details: Prenatal developmental toxicity study; sprague dawley; Oral; Gavage/Intubation; dose end: 17 GD; group: maternal; systemic / in life observation / clinical signs / [other] + systemic / in life observation / clinical signs / ataxia + systemic / in life …
rat [5] = details: Peri- and post-natal toxicity study (Segment III), sprague dawley, Oral, Gavage/Intubation, dose end: 25 PND
rat [6] = details: Multigenerational reproductive toxicity study; sprague dawley; Oral; Gavage/Intubation; dose end: 1 generation; group: parental; systemic / in life observation / body weight / body weight gain + systemic / in life observation / clinical signs / skin discoloration + …
dog [7] = details: Chronic toxicity, beagle, Oral, Feed, dose end: 394 day, group: systemic
dog [8] = details: Subchronic oral toxicity in nonrodent, beagle, Feed, dose end: 98 day, group: systemic
rat [9] = details: Subchronic oral toxicity in rodents, wistar, Feed, dose end: 90 day, group: systemic
rat [10] = details: Multigenerational reproductive toxicity study, wistar, Oral, Feed, dose end: 2 generation
rat [11] = details: Prenatal developmental toxicity study, wistar, Oral, Gavage/Intubation, dose end: 20 GD
mouse [12] = details: Carcinogenicity, cd1, Oral, Feed, dose end: 78 week, group: systemic
mouse [13] = details: Subchronic oral toxicity in rodents, cd1, Feed, dose end: 90 day, group: systemic, systemic / organ weight / liver / relative to body weight + systemic / organ weight / liver / absolute + systemic / clinical chemistry / …
rat [14] = details: Prenatal developmental toxicity study, sprague dawley, Oral, Gavage/Intubation, dose end: 17 GD
dog [15] = details: Subchronic oral toxicity in nonrodent, beagle, Capsule, dose end: 14 week, group: systemic
dog [16] = details: Chronic toxicity, beagle, Oral, Capsule, dose end: 52 week, group: systemic
rat [17] = details: Subchronic oral toxicity in rodents, sprague dawley, Gavage/Intubation, dose end: 14 week, group: systemic
rat [18] = details: Multigenerational reproductive toxicity study, sprague dawley, Oral, Feed, dose end: 2 generation
rat [19] = details: Combined chronic toxicity/carcinogenicity; sprague dawley; Oral; Feed; dose end: 104 week; group: systemic; systemic / in life observation / body weight / body weight + systemic / in life observation / body weight / body weight gain + systemic / …
rabbit [20] = details: Prenatal developmental toxicity study, new zealand white, Oral, Gavage/Intubation, dose end: 18 GD
mouse [21] = details: Prenatal developmental toxicity study, other, Oral, Gavage/Intubation, dose end: 15 GD
rat [22] = details: Subchronic oral toxicity in rodents, sprague dawley, Feed, dose end: 90 day, group: systemic, systemic / in life observation / body weight / body weight gain + systemic / pathology microscopic / liver / hypertrophy + systemic / …
mouse [23] = details: Carcinogenicity, cd1, Oral, Feed, dose end: 105 week, group: systemic
[24] = group: developmental, developmental / developmental landmark / incisor eruption / incisor eruption + developmental / developmental malformation / bone / delayed …
[25] = group: maternal, systemic / in life observation / body weight / body weight + systemic / in life observation / clinical signs / [other] + systemic / in life …
[26] = group: maternal, reproductive / offspring survival early / dead fetuses / dead fetuses
[27] = group: parental, systemic / in life observation / clinical signs / skin discoloration + systemic / in life observation / clinical signs / urine, …
[28] = systemic / clinical chemistry / alkaline phosphatase (alp/alk) / alkaline phosphatase (alp/alk) + systemic / clinical chemistry / gamma …
[29] = systemic / pathology microscopic / kidney / pigmentation
[30] = systemic / in life observation / body weight / body weight gain + systemic / in life observation / food consumption / food efficiency + …
[31] = systemic / hematology / hemoglobin (hgb) / hemoglobin (hgb)
[32] = systemic / in life observation / body weight / body weight + systemic / in life observation / body weight / body weight gain + systemic / in…
[33] = group: offspring, developmental / developmental malformation / bone / incomplete ossification + developmental / developmental landmark / preputial separation…
[34] = group: parental, systemic / in life observation / body weight / body weight gain
[35] = group: developmental, developmental / developmental malformation / bone / incomplete ossification
[36] = group: maternal, systemic / organ weight / liver / absolute + systemic / organ weight / liver / relative to body weight
[37] = systemic / clinical chemistry / alanine aminotransferase (alt/sgpt) / alanine aminotransferase (alt/sgpt) + systemic / clinical chemistry / …
[38] = group: developmental, systemic / in life observation / body weight / fetal weight
[39] = group: maternal, systemic / in life observation / body weight / body weight gain + systemic / in life observation / food consumption / food consumption
[40] = group: maternal, systemic / in life observation / body weight / body weight gain + systemic / in life observation / food consumption / food consumption + …
[41] = systemic / hematology / anemia / anemia - nos + systemic / hematology / erythrocyte (rbc) count differential / erythrocyte (rbc) + systemic…
[42] = systemic / organ weight / liver / absolute + systemic / organ weight / liver / relative to body weight + systemic / pathology microscopic / …
[43] = systemic / pathology microscopic / gallbladder / discolored + systemic / pathology microscopic / gallbladder / vacuolization cytoplasmic
[44] = systemic / in life observation / clinical signs / alopecia
[45] = systemic / pathology microscopic / kidney / calculus + systemic / pathology microscopic / kidney / hyperplasia + systemic / pathology …
[46] = group: offspring, systemic / in life observation / body weight / offspring (pup) weight
[47] = group: parental, systemic / in life observation / body weight / body weight gain + systemic / in life observation / food consumption / food consumption
[48] = group: parental, systemic / in life observation / food consumption / food consumption
[49] = group: developmental, developmental / developmental malformation / bone / incomplete ossification + developmental / developmental malformation / lung / abnormal …
[50] = group: maternal, reproductive / reproductive performance / resorptions / resorptions + systemic / in life observation / body weight / body weight gain + …
[51] = systemic / in life observation / mortality / mortality

## Oc1ccccc1O [Catechol]
Rat [1]
  LEL: 400 mg/kg/day
  LOAEL: > 400 mg/kg/day
  NEL: < 400 mg/kg/day
  NOAEL: ≥ 400 mg/kg/day
Mouse [2]
  LEL: 1200 mg/kg/day
  LOAEL: > 1200 mg/kg/day
  NEL: < 1200 mg/kg/day
  NOAEL: ≥ 1200 mg/kg/day

## CCc1cc(S(=O)(=O)O)c2cc(C(C)C)cccc1-2 [Egualen]
Rabbit [3]; [24]
  LEL: 135 mg/kg/day
  LOAEL: > 135 mg/kg/day
  NEL: 45 mg/kg/day
  NOAEL: ≥ 135 mg/kg/day
Rabbit [3]; [25]
  LEL: 135 mg/kg/day
  LOAEL: > 135 mg/kg/day
  NEL: 45 mg/kg/day
  NOAEL: ≥ 135 mg/kg/day
Rat [4]
  LEL: 77 mg/kg/day
  LOAEL: > 600 mg/kg/day
  NEL: 10 mg/kg/day
  NOAEL: ≥ 600 mg/kg/day
Rat [5]; [26]
  LEL: 300 mg/kg/day
  LOAEL: > 300 mg/kg/day
  NEL: 55 mg/kg/day
  NOAEL: ≥ 300 mg/kg/day
Rat [5]; [27]
  LEL: 55 mg/kg/day
  LOAEL: > 300 mg/kg/day
  NEL: 10 mg/kg/day
  NOAEL: ≥ 300 mg/kg/day
Rat [6]
  LEL: 200 mg/kg/day
  LOAEL: > 200 mg/kg/day
  NEL: 50 mg/kg/day
  NOAEL: ≥ 200 mg/kg/day

## CO/N=C(/C1=NOCCO1)c1ccccc1Oc1ncnc(Oc2ccccc2Cl)c1F [Fluoxastrobin]
Dog [7]; [28]
  LOAEL: 7.7 mg/kg/day
  NOAEL: 1.5 mg/kg/day
Dog [7]; [29]
  LEL: 0.7 mg/kg/day
  NEL: < 0.7 mg/kg/day
Dog [8]; systemic / in life observation / body weight / body weight gain + systemic / in life observation / food consumption / food efficiency
  LEL: 3 mg/kg/day
Dog [8]; [30]
  LOAEL: 24.2 mg/kg/day
  NEL: 1.4 mg/kg/day
  NOAEL: 3 mg/kg/day
Rat [9]; [31]
  LEL: 21.5 mg/kg/day
  NEL: < 21.5 mg/kg/day
Rat [9]; [32]
  LOAEL: 580 mg/kg/day
  NOAEL: 70.4 mg/kg/day
Rat [10]; [33]
  LEL: 862 mg/kg/day
  LOAEL: 862 mg/kg/day
  NEL: 77.4 mg/kg/day
  NOAEL: 77.4 mg/kg/day
Rat [10]; [34]
  LEL: 665 mg/kg/day
  LOAEL: 665 mg/kg/day
  NEL: 70 mg/kg/day
  NOAEL: 70 mg/kg/day
Rat [11]; [35]
  LEL: 300 mg/kg/day
  LOAEL: > 1000 mg/kg/day
  NEL: 100 mg/kg/day
  NOAEL: ≥ 1000 mg/kg/day
Rat [11]; [36]
  LEL: 1000 mg/kg/day
  LOAEL: > 1000 mg/kg/day
  NEL: 300 mg/kg/day
  NOAEL: ≥ 1000 mg/kg/day
Mouse [12]; [37]
  LOAEL: > 776 mg/kg/day
  NEL: 19 mg/kg/day
  NOAEL: ≥ 776 mg/kg/day
Mouse [12]; systemic / in life observation / body weight / body weight + systemic / organ weight / liver / relative to body weight
  LEL: 135 mg/kg/day
Mouse [13]
  LEL: 81.1 mg/kg/day
  LOAEL: > 1300 mg/kg/day
  NEL: < 81.1 mg/kg/day
  NOAEL: ≥ 1300 mg/kg/day

## c1ccc2[nH]c(-c3cscn3)nc2c1 [Thiabendazole]
Rat [14]; [38]
  LEL: 40 mg/kg/day
  LOAEL: 40 mg/kg/day
  NEL: 10 mg/kg/day
  NOAEL: 10 mg/kg/day
Rat [14]; [39]
  LEL: 40 mg/kg/day
  LOAEL: 40 mg/kg/day
Rat [14]; [40]
  NEL: 10 mg/kg/day
  NOAEL: 10 mg/kg/day
Dog [15]; [41]
  LOAEL: > 150 mg/kg/day
  NEL: 35 mg/kg/day
  NOAEL: ≥ 150 mg/kg/day
Dog [15]; systemic / in life observation / clinical signs / emesis + systemic / pathology microscopic / gallbladder / vacuolization cytoplasmic
  LEL: 75 mg/kg/day
Dog [16]; [42]
  LOAEL: 40 mg/kg/day
  NOAEL: 10 mg/kg/day
Dog [16]; [43]
  LEL: 10 mg/kg/day
  NEL: < 10 mg/kg/day
Rat [17]; [44]
  LEL: 25 mg/kg/day
  NEL: < 25 mg/kg/day
Rat [17]; [45]
  LOAEL: 100 mg/kg/day
  NOAEL: 25 mg/kg/day
Rat [18]; [46]
  LEL: 90 mg/kg/day
  LOAEL: 90 mg/kg/day
  NEL: 30 mg/kg/day
  NOAEL: 30 mg/kg/day
Rat [18]; [47]
  LOAEL: 30 mg/kg/day
  NOAEL: 10 mg/kg/day
Rat [18]; [48]
  LEL: 10 mg/kg/day
  NEL: < 10 mg/kg/day
Rat [19]
  LEL: 30.1 mg/kg/day
  LOAEL: 30.1 mg/kg/day
  NEL: 10.1 mg/kg/day
  NOAEL: 10.1 mg/kg/day
Rabbit [20]; [49]
  LEL: 600 mg/kg/day
  LOAEL: 600 mg/kg/day
  NEL: 150 mg/kg/day
  NOAEL: 150 mg/kg/day
Rabbit [20]; [50]
  LEL: 600 mg/kg/day
  LOAEL: 600 mg/kg/day
  NEL: 150 mg/kg/day
  NOAEL: 150 mg/kg/day
Mouse [21]; [38]
  LEL: 100 mg/kg/day
  LOAEL: 100 mg/kg/day
  NEL: 25 mg/kg/day
  NOAEL: 25 mg/kg/day
Mouse [21]; [39]
  LEL: 100 mg/kg/day
  LOAEL: 100 mg/kg/day
  NEL: 25 mg/kg/day
  NOAEL: 25 mg/kg/day
Rat [22]
  LEL: 37 mg/kg/day
  LOAEL: 37 mg/kg/day
  NEL: 9.4 mg/kg/day
  NOAEL: 9.4 mg/kg/day
Mouse [23]; systemic / in life observation / body weight / body weight gain
  LOAEL: 92 mg/kg/day
Mouse [23]; [51]
  LEL: 6.95 mg/kg/day
  NEL: < 6.95 mg/kg/day
Mouse [23]; systemic / in life observation / mortality / mortality + systemic / in life observation / body weight / body weight gain + systemic / organ …
  NOAEL: 36.5 mg/kg/day
